Measured values: patent publication US20250051347A1, “BIFUNCTIONAL CHIMERIC HETEROCYCLIC COMPOUND AND USE THEREOF AS ANDROGEN RECEPTOR DEGRADER” (Hinova Pharmaceuticals, Inc., priority 2021, published 2025)

Target: T1, androgen receptor (AR) splicing variant AR-v7 (Homo sapiens, UniProt P10275)
T1 construct: The degradation activity of compounds on AR-v7 in 22RV1 cells; host or cells: 22RV1 cells
T1 sequence (P10275 1-644 isoform P10275-3): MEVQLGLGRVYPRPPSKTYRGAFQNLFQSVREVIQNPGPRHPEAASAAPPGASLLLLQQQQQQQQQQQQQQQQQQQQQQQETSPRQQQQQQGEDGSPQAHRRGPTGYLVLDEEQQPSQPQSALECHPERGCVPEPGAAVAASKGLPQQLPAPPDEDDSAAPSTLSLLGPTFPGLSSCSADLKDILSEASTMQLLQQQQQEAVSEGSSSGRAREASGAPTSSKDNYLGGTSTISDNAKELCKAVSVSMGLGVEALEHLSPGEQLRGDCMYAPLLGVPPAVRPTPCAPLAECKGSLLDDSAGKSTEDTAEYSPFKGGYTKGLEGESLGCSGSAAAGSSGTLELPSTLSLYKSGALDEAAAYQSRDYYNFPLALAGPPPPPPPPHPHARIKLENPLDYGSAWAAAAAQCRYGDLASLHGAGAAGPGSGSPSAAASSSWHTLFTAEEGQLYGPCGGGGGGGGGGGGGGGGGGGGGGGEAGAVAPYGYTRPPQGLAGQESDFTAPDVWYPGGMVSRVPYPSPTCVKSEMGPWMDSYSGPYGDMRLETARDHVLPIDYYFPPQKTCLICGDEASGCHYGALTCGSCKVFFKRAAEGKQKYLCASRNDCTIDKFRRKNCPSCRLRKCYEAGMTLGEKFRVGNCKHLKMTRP
Assay: Degradation activity on androgen receptor splicing variant AR-v7 in 22RV1 cells (ELISA)
Format: cell-based
Conditions: AR-v7 degradation in 22RV1 cells, 48 h
Protocol: The degradation activity of the compound of the present invention on the androgen receptor splicing variant AR-V7 was analyzed using enzyme-linked immunosorbent assay (ELISA).
The plate was cultured in a 5% CO2 cell incubator at 37° C. for 2 days until the cells adhered to the wall. • 2) The drug was prepared into 10 mM stock solution with dimethylsulfoxide (DMSO). […] The plate was gently shaken and mixed. In addition, negative control wells (only containing culture medium) and positive control wells (only containing cells and DMSO) were set. • 3) After the cells were cultured in an incubator for 48 h, the medium was removed and the cells were rinsed once with ice cold PBS. Then, ice-cold 1× cell lysis buffer was added to each well of the cell culture plate. After the plate was incubated on ice for 15 min, the plate was tapped to mix. • 4) The supernatant of the cell lysate was transferred from the cell culture plate to a […] plate for ELISA. • 5) The newly prepared Capture antibody (green) was mixed with the newly prepared HRP-labeled antibody (red), and then the antibody mixture was added to the above 96-well ELISA plate. • 6) The ELISA plate was sealed with plastic film, and then incubated in a 25° C. incubator for 1 h. • 7) The washing buffer was added to each well, and then TMB substrate was added to each well of the ELISA plate. Subsequently, the plate was cultured in an incubator at 37° C. for 5 min. • 8) 100 μl of stop solution was added to each well of the ELISA plate, and the plate was gently tapped for several seconds. The absorbance was read at 450 nm within 30 min. The data were analyzed by the Dose-response equation in the software GraphPad Prism8, to obtain DC50 and Dmax values.

Row | DC50 (class symbols) [µM] | DC50 (numeric values) [µM] | SMILES
1 | 1 to 5 | – | CC(C)(c1ccc(OCCCCCOc2ccc3c(c2)C(=O)N(C2CCC(=O)NC2=O)C3=O)cc1)c1ccc(OCc2ccnc(NS(C)(=O)=O)n2)cc1 (stereo not drawn) [Example 9, N-(4-((4-(2-(4-((5-((2-(2,6-dioxopiperidin-3-yl)-1,3-dioxoisoindolin-5-yl)oxy)pentyl)oxy)phenyl)propan-2-yl)phenoxy)methyl)pyrimidin-2-yl)methanesulfonamide]
2 | 1 to 5 | – | CC(C)(c1ccc(OCCCN2CCN(CC3CCN(CC4CN(c5ccc6c(c5)C(=O)N(C5CCC(=O)NC5=O)C6=O)C4)CC3)CC2)cc1)c1ccc(OCc2ccnc(NS(C)(=O)=O)n2)cc1 (stereo not drawn) [Example 11, N-(4-((4-(2-(4-(3-(4-((1-((1-(2-(2,6-dioxopiperidin-3-yl)-1,3-dioxoisoindolin-5-yl)azetidin-3-yl)methyl)piperidin-4-yl)methyl)piperazin-1-yl)propoxy)phenyl)propan-2-yl)phenoxy)methyl)pyrimidin-2-yl)methanesulfonamide]
3 | 1 to 5 | – | CC(C)(c1ccc(OCc2ccnc(NS(C)(=O)=O)n2)cc1)c1ccc(OC2CCN(CC3CCN(CC4CCN(CC5CN(c6ccc7c(c6)C(=O)N(C6CCC(=O)NC6=O)C7=O)C5)CC4)CC3)CC2)cc1 (stereo not drawn) [Example 12]
4 | – | > 10 | CC(C)(c1ccc(OCc2ccnc(NS(C)(=O)=O)n2)cc1)c1ccc(OC2CN(CCCCCOCCCCNc3ccc4c(c3)C(=O)N(C3CCC(=O)NC3=O)C4=O)C2)cc1 (stereo not drawn) [Example 14]
5 | – | > 10 | CC(C)(c1ccc(OCc2ccnc(NS(C)(=O)=O)n2)cc1)c1ccc(OC2CCN(CCCCCOCCCCNc3ccc4c(c3)C(=O)N(C3CCC(=O)NC3=O)C4=O)CC2)cc1 (stereo not drawn) [Example 15]
6 | – | > 10 | CC(C)(c1ccc(OCc2ccnc(NS(C)(=O)=O)n2)cc1)c1ccc(OCC2CCN(CCCOCCCCNc3ccc4c(c3)C(=O)N(C3CCC(=O)NC3=O)C4=O)CC2)cc1 (stereo not drawn) [Example 16]
7 | 1 to 5 | – | CC(C)(c1ccc(OCCCOCCCNc2cccc3c2C(=O)N(C2CCC(=O)NC2=O)C3=O)cc1)c1ccc(OCc2ccnc(NS(C)(=O)=O)n2)cc1 (stereo not drawn) [Example 17]
8 | – | > 10 | CC(C)(c1ccc(OCCCOCCCNc2ccc3c(c2)C(=O)N(C2CCC(=O)NC2=O)C3=O)cc1)c1ccc(OCc2ccnc(NS(C)(=O)=O)n2)cc1 (stereo not drawn) [Example 18]
9 | – | 6.86 | CC(C)(c1ccc(OCCCOCCCOCCCNc2cccc3c2C(=O)N(C2CCC(=O)NC2=O)C3=O)cc1)c1ccc(OCc2ccnc(NS(C)(=O)=O)n2)cc1 (stereo not drawn) [Example 19, N-(4-((4-(2-(4-(3-(3-(3-((2-(2,6-dioxopiperidin-3-yl)-1,3-dioxoisoindolin-4-yl)amino)propoxy)propoxy)propoxy)phenyl)propan-2-yl)phenoxy)methyl)pyrimidin-2-yl)methanesulfonamide]
10 | 1 to 5 | – | CC(C)(c1ccc(OCCCOCCCOCCCNc2ccc3c(c2)C(=O)N(C2CCC(=O)NC2=O)C3=O)cc1)c1ccc(OCc2ccnc(NS(C)(=O)=O)n2)cc1 (stereo not drawn) [Example 20, N-(4-((4-(2-(4-(3-(3-(3-((2-(2,6-dioxopiperidin-3-yl)-1,3-dioxoisoindolin-5-yl)amino)propoxy)propoxy)propoxy)phenyl)propan-2-yl)phenoxy)methyl)pyrimidin-2-yl)methanesulfonamide]
11 | 1 to 5 | – | CC(C)(c1ccc(OCCCCCCCOCCCOCCCNc2cccc3c2C(=O)N(C2CCC(=O)NC2=O)C3=O)cc1)c1ccc(OCc2ccnc(NS(C)(=O)=O)n2)cc1 (stereo not drawn) [Example 23]
12 | – | > 10 | CC(C)(c1ccc(OCCCCCCCOCCCOCCCNc2ccc3c(c2)C(=O)N(C2CCC(=O)NC2=O)C3=O)cc1)c1ccc(OCc2ccnc(NS(C)(=O)=O)n2)cc1 (stereo not drawn) [Example 24]
13 | – | 7.58 | CC(C)(c1ccc(OCCCCCCCCOCCCCNc2ccc3c(c2)C(=O)N(C2CCC(=O)NC2=O)C3=O)cc1)c1ccc(OCc2ccnc(N3CCCS3(=O)=O)n2)cc1 (stereo not drawn) [Example 27, 5-((4-((8-(4-(2-(4-((2-(1,1-dioxoisothiazolidin-2-yl)pyrimidin-4-yl)methoxy)phenyl)propan-2-yl)phenoxy)octyl)oxy)butyl)amino)-2-(2,6-dioxopiperidin-3-yl)isoindolin-1,3-dione]
14 | – | 5.27 | CC(C)(c1ccc(OCCCCCCCCOCCCCNc2ccc3c(c2)C(=O)N(C2CCC(=O)NC2=O)C3=O)cc1)c1ccc(OCc2ccnc(N)n2)cc1 (stereo not drawn) [Example 28, 5-((4-((8-(4-(2-(4-((2-aminopyrimidin-4-yl)methoxy)phenyl)propan-2-yl)phenoxy)octyl)oxy)butyl)amino)-2-(2,6-dioxopiperidin-3-yl)isoindolin-1,3-dione]
15 | – | 6.33 | CC(C)(c1ccc(OCCCN2CCN(CC3CCN(CCCNc4ccc5c(c4)C(=O)N(C4CCC(=O)NC4=O)C5=O)CC3)CC2)cc1)c1ccc(OCc2ccnc(NS(C)(=O)=O)n2)cc1 (stereo not drawn) [Example 29, N-(4-((4-(2-(4-(3-(4-((1-(3-((2-(2,6-dioxopiperidin-3-yl)-1,3-dioxoisoindolin-5-yl)amino)propyl)piperidin-4-yl)methyl)piperazin-1-yl)propoxy)phenyl)propan-2-yl)phenoxy)methyl)pyrimidin-2-yl)methanesulfonamide]

Row | SMILES | DC50 (class symbols) [µM] | DC50 (numeric values) [µM]
16 | CC(C)(c1ccc(OCCCCNc2cccc3c2C(=O)N(C2CCC(=O)NC2=O)C3=O)cc1)c1ccc(OCc2ccnc(NS(C)(=O)=O)n2)cc1 (stereo not drawn) [Example 10, N-(4-((4-(2-(4-(4-((2-(2,6-dioxopiperidin-3-yl)-1,3-dioxoisoindolin-yl)amino)butoxy)phenyl)propan-2-yl)phenoxy)methyl)pyrimidin-2-yl)methanesulfonamide] | 1 to 5 | –
17 | CC(C)(c1ccc(OCc2ccnc(NS(C)(=O)=O)n2)cc1)c1ccc(OCC2CCN(CCCCOCCCCNc3ccc4c(c3)C(=O)N(C3CCC(=O)NC3=O)C4=O)C2)cc1 (stereo not drawn) [Example 13, N-(4-((4-(2-(4-((1-(4-(4-(4-)((2-(2,6-dioxopiperidin-3-yl)-1,3-dioxoisoindolin-5-yl)amino)butoxy)butyl)pyrrolidin-3-yl)methoxy)phenyl)propan-2-yl)phenoxy)methyl)pyrimidin-2-yl)methanesulfonamide] | – | 6.97
18 | CC(C)(c1ccc(OCCCCCCCCOCCCCNc2cccc3c2C(=O)N(C2CCC(=O)NC2=O)C3=O)cc1)c1ccc(OCc2ccnc(NS(C)(=O)=O)n2)cc1 (stereo not drawn) [Example 21, N-(4-((4-(2-(4-((8-(4-((2-(2,6-dioxopiperidin-3-yl)-1,3-dioxoisoindolin-4-yl)amino)butoxy)octyl)oxy)phenyl)propan-2-yl)phenoxy)methyl)pyrimidin-2-yl)methanesulfonamide] | – | 5.77
19 | CC(C)(c1ccc(OCCCCCCCCOCCCCNc2ccc3c(c2)C(=O)N(C2CCC(=O)NC2=O)C3=O)cc1)c1ccc(OCc2ccnc(NS(C)(=O)=O)n2)cc1 (stereo not drawn) [Example 22, N-(4-((4-(2-(4-((8-(4-((2-(2,6-dioxopiperidin-3-yl)-1,3-dioxoisoindolin-5-yl)amino)butoxy)octyl)oxy)phenyl)propan-2-yl)phenoxy)methyl)pyrimidin-2-yl)methanesulfonamide] | 0.101 to 1 | –
20 | CN(c1nccc(COc2ccc(C(C)(C)c3ccc(OCCCCCCCCOCCCCNc4ccc5c(c4)C(=O)N(C4CCC(=O)NC4=O)C5=O)cc3)cc2)n1)S(C)(=O)=O (stereo not drawn) [Example 25, N-(4-((4-(2-(4-((8-(4-((2-(2,6-dioxopiperidin-3-yl)-1,3-dioxoisoindolin-5-yl)amino)butoxy)octyl)oxy)phenyl)propan-2-yl)phenoxy)methyl)pyrimidin-2-yl)-N-methyl methanesulfonamide] | – | > 10
21 | CC(=O)Nc1nccc(COc2ccc(C(C)(C)c3ccc(OCCCCCCCCOCCCCNc4ccc5c(c4)C(=O)N(C4CCC(=O)NC4=O)C5=O)cc3)cc2)n1 (stereo not drawn) [Example 26, N-(4-((4-(2-(4-((8-(4-((2-(2,6-dioxopiperidin-3-yl)-1,3-dioxoisoindolin-5-yl)amino)butoxy)octyl)oxy)phenyl)propan-2-yl)phenoxy)methyl)pyrimidin-2-yl)acetamide] | 1 to 5 | –
